For one data set, the system named is Trembler J mice. The data set is described as follows: Trembler J mice, model of Charcot-Marie-Tooth type 1. It counts as in vivo. Particulars: intravenous or intraperitoneal daily injection. An excerpt:
(§1) Similar findings were also seen in other murine models such as Trembler J mice, a murine model of Charcot-Marie-Tooth type 1, MOG-EAE mice, model of multiple sclerosis with significant axonal loss, and Streptozotocin-induced diabetic mouse model. […] Application of the RGD peptide allowed the diseased mice to have a normal or near normal phenotype similar to untreated wild-type animals.
(§2) Similar findings were also seen in other murine models including (1) Trembler J mice, a murine model of Charcot-Marie-Tooth type 1, (2) MOG-EAE mice, model of multiple sclerosis with significant axonal loss, and (3) Streptozotocin-induced diabetic mouse model. […] The RGD peptide allowed the diseased mice to have a normal or near normal phenotype similar to untreated wild-type animals.

Data set [1] deals with dorsal root ganglion (DRG) explants. The data set is described as follows: Axonal protection of DRG explants exposed to vincristine. It counts as cell-based. Here is the method: Panels A to D are representative images of dorsal root ganglion (DRG) explants after exposure to 50 nM vincristine at 0 and 60 hours. Explants in panels A and B were treated with 50 nM vincristine and 0.5 μg/ml peptide while those in panels C and D were treated with vincristine alone.
DRG explants were exposed to 50 nM vincristine. Explants in panels A and B were treated with 50 nM vincristine and 0.5 μg/ml RGD peptide while those in panels C and D were treated with vincristine alone. […] The cyclo-GRGDSP (SEQ ID NO:3) peptide potently promoted axonal survival in cell culture with EC50=0.5 μM (FIG. 1.E).

Data set [2] can be described thus: Bioavailability and bio-distribution by LC-QTOF mass spectrometer. It counts as in vivo, C57B1 mice. Conditions: intraperitoneal 1 μg/g. The procedure: In contrast, there was no decrease with the co-administration of the peptide (n=10 mice).
To test the bioavailability and bio-distribution of the RGD peptides in vivo, C57B1 mice were given intraperitoneal injection of 1 μg/g weight of cylco-GRGDSP (SEQ ID NO:3) in normal saline (1 mg/ml). The mice were sacrificed at 30, 60, 120, and 240 minutes. Blood, brain, skin, muscle, and tibial and sciatic nerves were collected. The presence of the peptide was detected using LC-QTOF mass spectrometer.

In data set [3] the test system is Streptozotocin-induced diabetic mouse model. The data set is described as follows: Streptozotocin-induced diabetic mouse model. Conditions: intravenous or intraperitoneal daily injection. It counts as in vivo.
Text: as §1, §2

Data set [4] concerns acrylamide intoxicated MAG−/− mice. The data set is described as follows: Acrylamide-induced axonal degeneration in MAG−/− mice. It counts as in vivo. Particulars: for severe gait instability / axonal swelling, beading and segmentation of Aβ fibers in the skin / neuromuscular junction morphology: daily intraperitoneal injection; for severe gait instability: acrylamide for 10 days; for axonal swelling, beading and segmentation of Aβ fibers in the skin / neuromuscular junction morphology: acrylamide, FIG. 2E; for change in amplitudes of CMAP: electrophysiological testing, FIG. 2D. The source says:
Furthermore, the RGD peptides can also prevent axonal and/or neuronal degeneration in vivo. See Example 3. Administration of acrylamide, a well characterized toxin, causes axonal “dying back” or degeneration without lymphocytic inflammatory response (Schaumburg et al., 1974, Ko et al., 2000; Ewaleifoh et al, 2012) in wild-type and MAG knockout mice. […] The acrylamide treated MAG−/− mice developed more rapid and severe motor impairment. Most mice fell off the rod even during pretraining and had profound decline in the retention time on the Rotarod (FIG. 2B). There was a decrease in amplitudes of CMAP (FIG. 2.D). […] The neuromuscular junction morphology was normal. On gross observation, there was only mild gait unsteadiness. […] Thus, the RGD peptide was able to prevent significant axonal degeneration that is typically seen in MAG−/− mice treated with acrylamide.
To test that RGD peptides may prevent axonal degeneration in a murine model, acrylamide, a well characterized toxin causing axonal “dying back” or degeneration without lymphocytic inflammatory response (Schaumburg et al., 1974, Ko et al., 2000, Ewaleifoh et at, 2012), was administered to wild-type and MAG−/− mice. When MAG knockout mice at 6 weeks of age were exposed to acrylamide for 10 days, there was markedly impaired gait with marked sensory ataxia and spreading of the toes of the hind limbs. The acrylamide treated MAG−/− mice developed more rapid and severe motor impairment. Most mice fell off the rod even during pretraining and had profound decline in the retention time on the Rotarod (FIG. 2B). There was a 68% decrease in amplitudes of CMAP (FIG. 2.D).
The neuromuscular junction morphology was normal (FIG. 2E). On gross observation, there was only mild gait unsteadiness.

The test system of another data set is MOG-EAE mice. The data set is described as follows: MOG-EAE mice, model of multiple sclerosis. The data set is classed as in vivo. Particulars: intravenous or intraperitoneal daily injection.
Text: as §1, §2

Data set [5] concerns postnatal (P4-5) dorsal root ganglion (DRG) and cerebrocortical neurons. The data set is described as follows: Prevention of axonal/neuronal death in cultured neurons. The data set is classed as cell-based. Conditions: in vitro; peptides in linear as well as cyclo forms; FIG. 1. The procedure: Several small RGD peptides containing RGD sequence were generated and their axonal protective effect was tested. The RGD peptides included RGDYK (SEQ ID NO:1), GRGDS (SEQ ID NO:2), FRGDLG (SEQ ID NO:4), FRGDSP (SEQ ID NO:9), IRGDSP (SEQ ID NO:15), RRGDQT (SEQ ID NO:5), KRGDNF (SEQ ID NO:6), PRGDLT (SEQ ID NO:7) in linear as well as cyclo forms.

A further data set relates to β1-integrin receptor. The data set is described as follows: Blocking of the peptide's axonal protection by integrin antagonists. The data set is classed as cell-based. The source says:
The RGD motif is known to bind to the integrin receptor. The addition of the peptides of the present invention to primary DRG neuronal cultures induced rapid phosphorylation of neurofilament (NFH), change in NAD synthase nicotinamide mononucleotide adenylyltransferase (NMNAT) expression, and focal adhesion kinase (FAK), an integrin-linked kinase, at the tyrosine 397 residue (Y397), which are indicative of integrin binding to a ligand. Co-administration of echistatin or specific function-blocking antibody to β1-integrin abolished the axonal/neuronal protective ability of the peptide. See Example 1.
The protective effect of the […] peptides was dependent upon their ability to bind to β1-integrin receptor. […] Co-administration of specific function-blocking antibody to β1-integrin abolished the axonal protective ability of the GRGDSP (SEQ ID NO:3) peptide.

Another data set has as its system axons. Conditions: insults such as vincristine, acrylamide, inflammatory mediators; Nguyen et al., 2009; cited from earlier work.
Where [6] appears, read: sampled 30, 60, 120, 240 minutes.

A word on the EC50: it is the concentration needed to bring the measured effect to its halfway point.

With `N=C(N)NCCC[C@@H]1NC(=O)CNC(=O)[C@@H]2CCCN2C(=O)[C@H](CO)NC(=O)[C@H](CC(=O)O)NC(=O)CNC1=O` [cyclo-GRGDSP], the “axonal/neuronal degeneration and behavioral deficits” value in the data set with Trembler J mice is “almost completely abolished”. For the same molecule, the EC50 in data set [1] (DRG explants exposed to 50 nM vincristine, FIG. 1E, read-out: EC50, axonal survival in cell culture) came to 500 nM. Moreover, in data set [1] (associated with axonal protection, FIG. 1F), the “neuronal death (TUNEL-positive cells)” value is reported as “marked decreased in neuronal death”. Also, the “peptide detected in sciatic nerves” value in [2] (all time points up to 4 hours, FIG. 2A) is on record as “detected in high concentration”. For the same molecule, in data set [2] (setting [6]), the “peptide detected in plasma” value was “detected” and the “peptide levels in brain” value is “only evident in the first hour”. The “axonal/neuronal degeneration and behavioral deficits” value in data set [3] is on record as “almost completely abolished”. Also, in data set [4], the severe gait instability result is listed as “largely prevented”; the “axonal swelling, beading and segmentation of Aβ fibers in the skin” value (from here on “axonal swelling”) is listed as “largely prevented”; the neuromuscular junction morphology entry is listed as “normal”; the “change in amplitudes of CMAP” value is recorded as “little to no change”. In addition, the “axonal/neuronal degeneration and behavioral deficits” value in the data set on MOG-EAE mice is “almost completely abolished”.

Consider “FRGDLG: RGD peptide, amino acid sequence FRGDLG (Synthetic Peptide, Linear or Cyclo)”, for which the “stabilize the axon and prevent axonal/neuronal death” value in [5] is “sufficient to stabilize the axon and to prevent axonal/neuronal death”.

In the case of “FRGDSP: RGD peptide, amino acid sequence FRGDSP (Synthetic Peptide, Linear or Cyclo)”, the “stabilize the axon and prevent axonal/neuronal death” value in data set [5] was “sufficient to stabilize the axon and to prevent axonal/neuronal death”.

Turning to “GRGDS: RGD peptide, amino acid sequence GRGDS (Synthetic Peptide, Linear or Cyclo)”, the “stabilize the axon and prevent axonal/neuronal death” value in [5] was “sufficient to stabilize the axon and to prevent axonal/neuronal death”.

“GRGDSP: RGD peptide, amino acid sequence GRGDSP”: in the data set on β1-integrin receptor (co-administration of specific function-blocking antibody to β1-integrin), the “axonal protective ability of the peptide” value is recorded as “abolished”.

In the case of “IRGDSP: RGD peptide, amino acid sequence IRGDSP (Synthetic Peptide, Linear or Cyclo)”, the “stabilize the axon and prevent axonal/neuronal death” value in [5] is “sufficient to stabilize the axon and to prevent axonal/neuronal death”.

“KRGDNF: RGD peptide, amino acid sequence KRGDNF (Synthetic Peptide, Linear or Cyclo)”: in data set [5], the “stabilize the axon and prevent axonal/neuronal death” value was “sufficient to stabilize the axon and to prevent axonal/neuronal death”.

On to “PRGDLT: RGD peptide, amino acid sequence PRGDLT (Synthetic Peptide, Linear or Cyclo)”, for which the “stabilize the axon and prevent axonal/neuronal death” value in data set [5] was “sufficient to stabilize the axon and to prevent axonal/neuronal death”.

Consider “RGDYK: RGD peptide, amino acid sequence RGDYK (Synthetic Peptide, Linear or Cyclo)”, for which the “stabilize the axon and prevent axonal/neuronal death” value in data set [5] was “sufficient to stabilize the axon and to prevent axonal/neuronal death”.

Consider “RRGDQT: RGD peptide, amino acid sequence RRGDQT (Synthetic Peptide, Linear or Cyclo)”, for which the “stabilize the axon and prevent axonal/neuronal death” value in data set [5] was “sufficient to stabilize the axon and to prevent axonal/neuronal death”.

As to “cyclo-FRGDLP: cyclic RGD peptide of sequence FRGDLP (SEQ ID NO:8) (cyclic; Synthetic Peptide, Linear or Cyclo)”, in data set [4], the severe gait instability result is reported as “largely prevented”; the “axonal swelling” value is “largely prevented”; the neuromuscular junction morphology result is given as “normal”; the “change in amplitudes of CMAP” value is “little to no change”.

Turning to “cyclo-FRGDSP: cyclic RGD peptide of sequence FRGDSP (SEQ ID NO:9) (cyclic; Synthetic Peptide, Linear or Cyclo)”, in data set [4], the severe gait instability result is “largely prevented”; the “axonal swelling” value is recorded as “largely prevented”; the neuromuscular junction morphology entry was “normal”; the “change in amplitudes of CMAP” value is reported as “little to no change”.

On to “cyclo-IRGDSP: cyclic RGD peptide of sequence IRGDSP (SEQ ID NO:15) (cyclic; Synthetic Peptide, Linear or Cyclo)”, for which the “axonal/neuronal degeneration and behavioral deficits” value with Trembler J mice is “almost completely abolished”. Moreover, in data set [3], the “axonal/neuronal degeneration and behavioral deficits” value is recorded as “almost completely abolished”. In data set [4], the severe gait instability entry is on record as “largely prevented”; the “axonal swelling” value is reported as “largely prevented”; the neuromuscular junction morphology entry is “normal”; the “change in amplitudes of CMAP” value is “little to no change”. Besides, the “axonal/neuronal degeneration and behavioral deficits” value in the data set with MOG-EAE mice is listed as “almost completely abolished”.

With echistatin [reference compound], in the data set on β1-integrin receptor (co-administration with RGD peptide), the “effect of co-administered blocker on axonal/neuronal protective ability of the peptide” value is recorded as “abolished”.

B1: MAG: transmembrane glycoprotein containing five Ig-like domains; adhesion molecule of the immunoglobin superfamily (protein, UniProt P20916 20-626, looked up)
Myelin-associated glycoprotein: GHWGAWMPSSISAFEGTCVSIPCRFDFPDELRPAVVHGVWYFNSPYPKNYPPVVFKSRTQVVHESFQGRSRLLGDLGLRNCTLLLSNVSPELGGKYYFRGDLGGYNQYTFSEHSVLDIVNTPNIVVPPEVVAGTEVEVSCMVPDNCPELRPELSWLGHEGLGEPAVLGRLREDEGTWVQVSLLHFVPTREANGHRLGCQASFPNTTLQFEGYASMDVKYPPVIVEMNSSVEAIEGSHVSLLCGADSNPPPLLTWMRDGTVLREAVAESLLLELEEVTPAEDGVYACLAENAYGQDNRTVGLSVMYAPWKPTVNGTMVAVEGETVSILCSTQSNPDPILTIFKEKQILSTVIYESELQLELPAVSPEDDGEYWCVAENQYGQRATAFNLSVEFAPVLLLESHCAAARDTVQCLCVVKSNPEPSVAFELPSRNVTVNESEREFVYSERSGLVLTSILTLRGQAQAPPRVICTARNLYGAKSLELPFQGAHRLMWAKIGPVGAVVAFAILIAIVCYITQTRRKKNVTESPSFSAGDNPPVLFSSDFRISGAPEKYESERRLGSERRLLGLRGEPPELDLSYSHSDLGKRPTKDSYTLTEELAEYAEIRVK
Consider B1, for which the “axonal survival / prevention of axonal degeneration caused by vincristine” value with axons is “promotes axonal survival”.

The values are drawn from patent US9555071B2, “Methods and compositions for the treatment of axonal and neuronal degeneration” (priority 2012, dated 2017).
